For one assay, the system named is HeLa. As to the kind of experiment: MTS proliferation assay, HeLa. Format: cell-based, human. The conditions noted are these: 72 h incubation, read-out: MTS proliferation assay IC 50 HeLa. The procedure, abridged: (§1)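 Seed cells (1.5*10^3-10^4/well) 24 h ahead; add compound, final 10/3/1/0.3 μM; incubate 72 h, 37 °C, 7.5% CO2; MTS 3 h; read A492.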
Another assay has as its system Jily. Put plainly: MTS proliferation assay, Jily. Format: cell-based. The conditions noted are these: 72 h incubation, read-out: MTS proliferation assay IC 50 Jily. An outline of the steps:
(§2)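 RPMI-1640 + 5% or 10% FCS; seeded 24 h pre-dose; cpd final 10/3/1/0.3 μM, max 5% DMSO in added volume; 72 h, 37° C, 7.5% CO2; MTS 3 h; A492.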
(Tetrazolium dyes change colour on reduction, which living cells bring about.)

A further assay concerns Jurkat. Put plainly: MTS proliferation assay, Jurkat. Format: cell-based, human. The conditions noted are these: 72 h incubation, read-out: MTS proliferation assay IC 50 Jurkat. An outline of the steps:
as §1

A further assay deals with MRC5. As to the kind of experiment: MTS proliferation assay, MRC5. In kind it is cell-based. The conditions noted are these: MRC5, 72 h incubation; read-out: MTS proliferation assay IC 50 MRC5. The procedure, abridged: as §2
For assay [1], the system named is adherent cells or suspension cells. Put plainly: Hoechst 33342 nuclear staining (fraction of apoptotic nuclei). In kind it is cell-based. Details: key: 0 relating to no activity; 1 relating to weak activity comprising less than 70% of the cells; score 2 relating to strong activity comprising more than 70% of the cells.
The next assay has as its system HT1080. Put plainly: MTS proliferation assay, HT1080. In kind it is cell-based, human. The conditions noted are these: HT1080, 72 h incubation; read-out: MTS proliferation assay IC 50 HT1080. The procedure, abridged:
as §1

Turning to `N#CCCNc1nonc1-c1nc2ccccc2n1COc1ccc(Br)cc1` [Example 94], the IC50 is 10 to 100 nM in the assay with HeLa; 10 to 100 nM in the assay with Jily; 10 to 100 nM with Jurkat; 100 to 1000 nM in the assay with MRC5; 10 to 100 nM in the assay on HT1080. For the same compound, the “Hoechst 33342 nuclear staining score” value is reported as 0 in assay [1] (H460, conc 0.01 μm); 2 (score 2 relating to strong activity comprising more than 70% of the cells) in assay [1] (H460, conc 0.1 μm); 2 (score 2 relating to strong activity comprising more than 70% of the cells) in assay [1] (H460, conc 1 μm); 0 in assay [1] (HeLa, conc 0.01 μm); 1 (1 relating to weak activity comprising less than 70% of the cells) in assay [1] (HeLa, conc 0.1 μm); 2 (score 2 relating to strong activity comprising more than 70% of the cells) in assay [1] (HeLa, conc 1 μm). The “Hoechst 33342 nuclear staining score” value in assay [1] (Jily, conc 0.01 μm) was 0; in assay [1] (Jily, conc 0.1 μm), 2 (score 2 relating to strong activity comprising more than 70% of the cells); in assay [1] (Jily, conc 1 μm), 2 (score 2 relating to strong activity comprising more than 70% of the cells); in assay [1] (Jurkat, conc 0.01 μm), 0; in assay [1] (Jurkat, conc 0.1 μm), 2 (score 2 relating to strong activity comprising more than 70% of the cells); in assay [1] (Jurkat, conc 1 μm), 2 (score 2 relating to strong activity comprising more than 70% of the cells). Moreover, the “Hoechst 33342 nuclear staining score” value in assay [1] (MRC5, conc 0.01 μm) is recorded as 0; in assay [1] (MRC5, conc 0.1 μm), 0; in assay [1] (MRC5, conc 1 μm), 2 (score 2 relating to strong activity comprising more than 70% of the cells); in assay [1] (PBLs, conc 0.01 μm) it was 0; in assay [1] (PBLs, conc 0.1 μm) it was 0; in assay [1] (PBLs, conc 1 μm) it was 0.

With `Nc1nonc1-c1nc2ccccc2n1CC(=O)c1ccc(F)cc1` [Example 67], the IC50 is 100 to 1000 nM in the assay with HeLa; 10 to 100 nM in the assay on Jily; 100 to 1000 nM in the assay on Jurkat; 100 to 1000 nM in the assay on MRC5; 100 to 1000 nM with HT1080. Besides, the “Hoechst 33342 nuclear staining score” value was 0 in assay [1] (H460, conc 0.01 μm); 0 in assay [1] (H460, conc 0.1 μm); 2 (score 2 relating to strong activity comprising more than 70% of the cells) in assay [1] (H460, conc 1 μm); 0 in assay [1] (HeLa, conc 0.01 μm); 0 in assay [1] (HeLa, conc 0.1 μm); 2 (score 2 relating to strong activity comprising more than 70% of the cells) in assay [1] (HeLa, conc 1 μm). Further, the “Hoechst 33342 nuclear staining score” value in assay [1] (Jily, conc 0.01 μm) is 0; in assay [1] (Jily, conc 0.1 μm), 2 (score 2 relating to strong activity comprising more than 70% of the cells); in assay [1] (Jily, conc 1 μm), 2 (score 2 relating to strong activity comprising more than 70% of the cells); in assay [1] (Jurkat, conc 0.01 μm), 0; in assay [1] (Jurkat, conc 0.1 μm) it was 2 (score 2 relating to strong activity comprising more than 70% of the cells); in assay [1] (Jurkat, conc 1 μm), 2 (score 2 relating to strong activity comprising more than 70% of the cells). Moreover, the “Hoechst 33342 nuclear staining score” value in assay [1] (MRC5, conc 0.01 μm) is 0; in assay [1] (MRC5, conc 0.1 μm), 0; in assay [1] (MRC5, conc 1 μm), 1 (1 relating to weak activity comprising less than 70% of the cells); in assay [1] (PBLs, conc 0.01 μm) it was 0; in assay [1] (PBLs, conc 0.1 μm) it was 0; in assay [1] (PBLs, conc 1 μm) it was 0.

For `Nc1nonc1-c1nc2ccccc2n1COc1ccc(Cl)cc1` [Example 88], the IC50 in the assay with HeLa, in the assay on Jily, with Jurkat, in the assay on MRC5 and with HT1080 was 100 to 1000 nM in each case. The “Hoechst 33342 nuclear staining score” value is reported as 0 in assay [1] (HeLa, conc 0.01 μm); 0 in assay [1] (HeLa, conc 0.1 μm); 2 (score 2 relating to strong activity comprising more than 70% of the cells) in assay [1] (HeLa, conc 1 μm); 0 in assay [1] (Jily, conc 0.01 μm); 0 in assay [1] (Jily, conc 0.1 μm); 1 (1 relating to weak activity comprising less than 70% of the cells) in assay [1] (Jily, conc 1 μm). The “Hoechst 33342 nuclear staining score” value in assay [1] (Jurkat, conc 0.01 μm) is 0; in assay [1] (Jurkat, conc 0.1 μm), 0; in assay [1] (Jurkat, conc 1 μm), 2 (score 2 relating to strong activity comprising more than 70% of the cells); in assay [1] (MRC5, conc 0.01 μm), 0; in assay [1] (MRC5, conc 0.1 μm), 0; in assay [1] (MRC5, conc 1 μm), 0. For the same compound, the “Hoechst 33342 nuclear staining score” value in assay [1] (PBLs, conc 0.01 μm) is given as 0; in assay [1] (PBLs, conc 0.1 μm), 0; in assay [1] (PBLs, conc 1 μm), 0.

Regarding `COc1ccc(C(=O)Cn2c(-c3nonc3NCCC#N)nc3ccccc32)cc1` [Example 48], the IC50 was 10 to 100 nM with HeLa; 10 to 100 nM in the assay with Jily; < 10 nM in the assay on Jurkat; 10 to 100 nM with MRC5; 10 to 100 nM in the assay with HT1080. The “Hoechst 33342 nuclear staining score” value in assay [1] (H460, conc 0.01 μm) was 0; in assay [1] (H460, conc 0.1 μm) it was 0; in assay [1] (H460, conc 1 μm) it was 2 (score 2 relating to strong activity comprising more than 70% of the cells); in assay [1] (HeLa, conc 0.01 μm), 0; in assay [1] (HeLa, conc 0.1 μm), 2 (score 2 relating to strong activity comprising more than 70% of the cells); in assay [1] (HeLa, conc 1 μm), 2 (score 2 relating to strong activity comprising more than 70% of the cells). Also, the “Hoechst 33342 nuclear staining score” value is reported as 0 in assay [1] (Jily, conc 0.01 μm); 2 (score 2 relating to strong activity comprising more than 70% of the cells) in assay [1] (Jily, conc 0.1 μm); 2 (score 2 relating to strong activity comprising more than 70% of the cells) in assay [1] (Jily, conc 1 μm); 0 in assay [1] (Jurkat, conc 0.01 μm); 2 (score 2 relating to strong activity comprising more than 70% of the cells) in assay [1] (Jurkat, conc 0.1 μm); 2 (score 2 relating to strong activity comprising more than 70% of the cells) in assay [1] (Jurkat, conc 1 μm). The “Hoechst 33342 nuclear staining score” value in assay [1] (MRC5, conc 0.01 μm) is recorded as 0; in assay [1] (MRC5, conc 0.1 μm), 2 (score 2 relating to strong activity comprising more than 70% of the cells); in assay [1] (MRC5, conc 1 μm), 2 (score 2 relating to strong activity comprising more than 70% of the cells); in assay [1] (PBLs, conc 0.01 μm) it was 0; in assay [1] (PBLs, conc 0.1 μm) it was 0; in assay [1] (PBLs, conc 1 μm) it was 0.

As to `Nc1nonc1-c1nc2ccccc2n1CC(=O)c1ccc(Cl)cc1Cl` [Example 31], the IC50 in the assay on HeLa is 100 to 1000 nM; in the assay with Jily it was 100 to 1000 nM; in the assay with Jurkat it was 100 to 1000 nM; in the assay on MRC5, 100 to 1000 nM; in the assay on HT1080, > 1000 nM. Besides, the “Hoechst 33342 nuclear staining score” value stood at 0 in assay [1] (H460, conc 0.01 μm); 0 in assay [1] (H460, conc 0.1 μm); 0 in assay [1] (H460, conc 1 μm); 0 in assay [1] (HeLa, conc 0.01 μm); 0 in assay [1] (HeLa, conc 0.1 μm); 0 in assay [1] (HeLa, conc 1 μm). In addition, the “Hoechst 33342 nuclear staining score” value in assay [1] (Jurkat, conc 0.01 μm) is 0; in assay [1] (Jurkat, conc 0.1 μm) it was 0; in assay [1] (Jurkat, conc 1 μm), 1 (1 relating to weak activity comprising less than 70% of the cells); in assay [1] (MRC5, conc 0.01 μm), 0; in assay [1] (MRC5, conc 0.1 μm), 0; in assay [1] (MRC5, conc 1 μm), 0. Further, the “Hoechst 33342 nuclear staining score” value in assay [1] (PBLs, conc 0.01 μm) is recorded as 0; in assay [1] (PBLs, conc 0.1 μm) it was 0; in assay [1] (PBLs, conc 1 μm), 0.

As to `COc1ccc(OCn2c(-c3nonc3N)nc3ccccc32)cc1` [Example 90], the IC50 with HeLa, with Jily, in the assay on Jurkat, with MRC5 and with HT1080 was 100 to 1000 nM each time. Besides, the “Hoechst 33342 nuclear staining score” value in assay [1] (HeLa, conc 0.01 μm) was 0; in assay [1] (HeLa, conc 0.1 μm), 0; in assay [1] (HeLa, conc 1 μm), 1 (1 relating to weak activity comprising less than 70% of the cells); in assay [1] (Jily, conc 0.01 μm) it was 0; in assay [1] (Jily, conc 0.1 μm), 0; in assay [1] (Jily, conc 1 μm), 1 (1 relating to weak activity comprising less than 70% of the cells). Further, the “Hoechst 33342 nuclear staining score” value in assay [1] (Jurkat, conc 0.01 μm) is given as 0; in assay [1] (Jurkat, conc 0.1 μm), 0; in assay [1] (Jurkat, conc 1 μm), 2 (score 2 relating to strong activity comprising more than 70% of the cells); in assay [1] (MRC5, conc 0.01 μm), 0; in assay [1] (MRC5, conc 0.1 μm), 0; in assay [1] (MRC5, conc 1 μm), 1 (1 relating to weak activity comprising less than 70% of the cells). In addition, the “Hoechst 33342 nuclear staining score” value in assay [1] (PBLs, conc 0.01 μm) was 0; in assay [1] (PBLs, conc 0.1 μm), 0; in assay [1] (PBLs, conc 1 μm), 0.

The record behind these values is USRE42890E1, “Furazanobenzimidazoles” (Basilea Pharmaceutica AG, priority 2003, dated 2011).
